From article PMC5947539, “Cyclometalated iridium(III) complexes as lysosome-targeted photodynamic anticancer and real-time tracking agents” (Chemical Science, 2015) come the findings set out here.

Like-named read-outs stand apart in the source and are kept apart here.

The test system of one assay is A549cisR cells. Kind of assay: (Photo)cytotoxicity, MTT assay, A549cisR. The assay is classed as cell-based, human. The following applies: for PI (phototoxicity index): IC50 dark / IC50 light. Here is the method:
(§1) Cell lines and culture conditions
(§2) A549, A549cisR, MCF-7 and LO2 cells were obtained from Experimental Animal Center of Sun Yat-sen University (Guangzhou, China). Cells were maintained in DMEM (Dulbecco’s modified […]
(§3) medium, which contained 10% FBS (fetal bovine serum, Gibco BRL), 100 ȝg/mL streptomycin (Gibco BRL), and 100 U/mL penicillin (Gibco BRL). The cells were cultured in a humidified […]
(§4) In each experiment, cells treated with vehicle control (1% DMSO) were kept as the reference group.
(§5) The cytotoxicity in the dark and phototoxicity of the tested compounds toward A549, A549cisR, MCF-7 and LO2 cell lines was determined by MTT assay.
(§6) For cytotoxicity in the dark, cells cultured in 96-well plates were grown to confluence. The compounds were dissolved in DMSO (1%, v/v), and diluted with fresh media immediately. the cells were incubated with a series of concentrations of the tested compounds for 44 h at 37 °C. 20 ȝL of MTT solution was then added to each well, and the plates were incubated for an additional 4 h. The media was carefully removed, and DMSO was added (150 µL per well) and incubated for 10 min with shaking. The absorbance at 595 nm was measured using a microplate reader (Infinite M200 Pro, Tecan, Männedorf, Switzerland).
(§7) For phototoxicity, the cells were incubated with the tested compounds for 12 h. The media containing the iridium complexes was removed and fresh media without the complexes was added.
(§8) After another 32 h of incubation, MTT was added. The cytotoxicity was determined as described
For orientation: Formazan colour is commonly taken as a measure of viable cells.

The test system of the next assay is LO2 cells. Kind of assay: (Photo)cytotoxicity, MTT assay, LO2. Conditions: for PI (phototoxicity index): IC50 dark / IC50 light. The assay is classed as cell-based, human. Here is the method: as §1, §2, §3, §4, §5, §6, §7, §8
Assay [1] has as its system A549 cells. Put plainly: (Photo)cytotoxicity, MTT assay, A549. The assay is classed as cell-based, human. The following applies: for PI (phototoxicity index) / IC50: A549; for PI (phototoxicity index): IC50 dark / IC50 light. Here is the method: as §1, §2, §3, §4, §5, §6, §7, §8
The next assay deals with MCF-7 cells. Kind of assay: (Photo)cytotoxicity, MTT assay, MCF-7. Format: cell-based, human. Conditions: for PI (phototoxicity index): IC50 dark / IC50 light. Here is the method:
as §1, §2, §3, §4, §5, §6, §7, §8

The subject of assay [2] is A549 cells. The following applies: A549, 0.5 μM with light (36 J cm–2), vs control cells treated with light alone. Here is the method: (§9) concentrations for 24 h with or without light irradiation. After A549 cells were incubated with 2 for 12 h, the cells were irradiated with a 425 nm LED light array (40 mW cmí2) for 15 min (36 J cmí2).
When necessary, the cells were incubated with NaN3 (10 mM) for 1 h before PDT treatment. The cells were washed twice with PBS gently and fixed with 4% paraformalclehyde for 30 min at room temprature. The cells were washed with PBS twice, and then Hoechst 33342 (5 µg/mL) in PBS was added to the media by gently shaking in the dark for 10 min. The cells were washed with PBS twice and visualized by confocal microscopy (LSM 710, Carl Zeiss, Göttingen, Germany). Emission was collected at 460 ± 20 nm upon excitation at 405 nm. […]
Caspase-3/7 activity was measured using Caspase-Glo® Assay kit (Promega, Madison, WI, USA) according to the manufacturer's instructions. […]
incubated with 2 or cisplatin for 12 h, the cells were irradiated with a 425 nm LED light array (40 mW cmí2) for 15 min (36 J cmí2). […] The mixture was incubated at room temperature for 1 h and then the luminescence was measured using a microplate reader (Infinite M200 Pro, Tecan, Männedorf, […]
The cells were further treated with 10 ȝM DCF-DA for 20 min at 37 °C in the dark and then then irradiated with a 425 nm LED light array (40 mW cmí2) for 15 min (36 J cmí2). […] The results were analyzed by FlowJo Software (Tree Star, OR, USA). […]

For assay [3], the system named is caspase-3/7 activity in A549 cells. Kind of assay: Caspase-3/7 activity assay (Caspase-Glo). The assay is classed as cell-based, human. Conditions: for increase in caspase-3/7 activity: vs control cells in the dark. Here is the method:
as §9
When necessary, the cells were incubated with NaN3 (10 mM) for 1 h before PDT treatment. The cells were washed twice with PBS gently and fixed with 4% paraformalclehyde for 30 min at room temprature. The cells were washed with PBS twice, and then Hoechst 33342 (5 µg/mL) in PBS was added to the media by gently shaking in the dark for 10 min. The cells were washed with PBS twice and visualized by confocal microscopy (LSM 710, Carl Zeiss, Göttingen, Germany). Emission was collected at 460 ± 20 nm upon excitation at 405 nm.
Caspase-3/7 activity assay
Caspase-3/7 activity was measured using Caspase-Glo® Assay kit (Promega, Madison, WI, USA) according to the manufacturer's instructions. Briefly, cells were cultured in 96-well plates and treated […]
incubated with 2 or cisplatin for 12 h, the cells were irradiated with a 425 nm LED light array (40 mW cmí2) for 15 min (36 J cmí2). 100 µL of Caspase-Glo® 3/7 reagent was added to each well containing 100 µL culture media. The mixture was incubated at room temperature for 1 h and then the luminescence was measured using a microplate reader (Infinite M200 Pro, Tecan, Männedorf, […]
The cells were further treated with 10 ȝM DCF-DA for 20 min at 37 °C in the dark and then then irradiated with a 425 nm LED light array (40 mW cmí2) for 15 min (36 J cmí2). After the treatment, the cells were harvested and washed twice with serum-free RPMI 1640, the fluorescence intensity of DCF in A549 cells was measured by flow cytometry (FACSCaliburTM, Becton Dickinson, Franklin Lakes, NJ, USA). The results were analyzed by FlowJo Software (Tree Star, OR, USA). […]
(§10) concentrations for 12 h and then irradiated with a 425 nm LED light array (40 mW cmí2) for 15 min

Assay [4] relates to A549 cells. Conditions: A549, 0.5 μM with light (36 J cm–2).
Procedure: Annexin V/propidium iodide double staining assay
The assay was performed according to the manufacturer's (Sigma Aldrich, USA) protocol. A549 cells
a 425 nm LED light array (40 mW cmí2) at different light doses (12, 24 or 36 J cmí2).
necessary, the cells were incubated with NaN3 (10 mM) for 1 h before PDT treatment. For flow
cytometry analysis, the cells were harvested and re-suspended in 500 ȝL annexin-binding buffer (10
mM HEPES, 140 mM NaCl, 2.5 mM CaCl2, pH 7.4). The cell suspension was stained with 5 ȝL
annexin V and 10 ȝL propidium iodide at room temperature for 15 min in the dark, and then
analyzed immediately by flow cytometry (FACSCaliburTM, Becton Dickinson, NJ, USA). The
resulting dot blots were analyzed by FlowJo Software (Tree Star, OR, USA). For confocal
microscopy analysis, the cells were washed twice with PBS, and then incubated with 500 ȝL annexin-binding buffer supplemented with 5 ȝL annexin V and 10 ȝL propidium iodide at room
temperature for 15 min in the dark. The samples were visualized immediately by confocal
microscopy (LSM 710, Carl Zeiss, Göttingen, Germany). Emission was collected at 530 ± 20 nm
(annexin V) and 620 ± 20 nm (propidium iodide) upon excitation at 488 nm.
The subject of another assay is A549 and LO2 cells. The following applies: 0.5 μM, light 36 J cm–2, annexin V/propidium iodide staining. Here is the method:
as §10

Where [5] appears, read: dark, incubated 48 h, read-out: IC50 Dark.
Setting [6] is: incubated 12 h then 425 nm LED 15 min (36 J cm–2), read-out: IC50 (light) (converted).
The mark [7] stands for this setting: Homo sapiens, dark, incubated 48 h, read-out: IC50 Dark.
Where [8] appears, read: Homo sapiens, incubated 12 h then 425 nm LED 15 min (36 J cm–2), read-out: IC50 (light) (converted).
[9] abbreviates: Homo sapiens, L02, dark, incubated 48 h, read-out: IC50 Dark.
The mark [10] stands for this setting: Homo sapiens, L02, incubated 12 h then 425 nm LED 15 min (36 J cm–2), read-out: IC50 (light) (converted).

The term IC50 denotes the midpoint of a concentration-inhibition curve. For Ir2(ppy)4Cl2 [reference compound], the “PI (phototoxicity index)” value is 2.9 with A549cisR cells, 1.3 with LO2 cells, 1.7 in the assay with A549 cells [1] and 4.3 with MCF-7 cells. Moreover, the IC50 with A549cisR cells (setting [5]) was 20.2 ± 2.3 µM; in the assay with A549cisR cells (setting [6]), 7 µM; with LO2 cells (setting [5]), 28.5 ± 2.4 µM; with LO2 cells (setting [6]), 21.3 µM; in the assay on A549 cells [1] (setting [5]), 19.6 ± 2.6 µM; with A549 cells [1] (setting [6]) it was 11.4 µM.
As for Ir2(dfppy)4Cl2 [reference compound], the “PI (phototoxicity index)” value turned out to be 1.0 with A549cisR cells, 1.4 with LO2 cells, 1.2 with A549 cells [1] and 5.2 in the assay with MCF-7 cells. Moreover, the IC50 in the assay on A549cisR cells (setting [5]) is 4.3 ± 0.5 µM; with A549cisR cells (setting [6]), 4.2 µM; in the assay with LO2 cells (setting [5]) it was 29.6 ± 3.1 µM; with LO2 cells (setting [6]), 21.5 µM; in the assay on A549 cells [1] (setting [5]), 11.5 ± 1.5 µM; in the assay with A549 cells [1] (setting [6]), 9.3 µM.
For the molecule `c1ccc2[nH]c(-c3nccc4c3[nH]c3ccccc34)nc2c1` [Complex L2, 1-(2-benzimidazolyl)-β-carboline], the IC50 in the assay on A549cisR cells (setting [7]), in the assay with A549cisR cells (setting [8]), in the assay with LO2 cells (setting [9]), in the assay with LO2 cells (setting [10]), in the assay with A549 cells [1] (setting [7]) and in the assay with A549 cells [1] (setting [8]) was over 100 µM each time.
In the case of “[Ir(N^C)2(N^N)](PF6) in which N^C = 2-phenylpyridine and N^N = 1-(2-benzimidazolyl)-β-carboline [Complex 2]”, the “PI (phototoxicity index)” value in the assay on A549cisR cells is on record as over 625; in the assay with A549 cells [1], over 833; with MCF-7 cells, over 769. The IC50 was over 100 µM with A549cisR cells (setting [5]); 0.16 µM with A549cisR cells (setting [6]); over 100 µM in the assay with LO2 cells (setting [5]); 4.4 µM in the assay on LO2 cells (setting [6]); at least 100 µM in the assay with A549 cells [1] (setting [5]); 0.12 µM with A549 cells [1] (setting [6]). The half-inhibitory concentration (IC50) in the assay with MCF-7 cells (incubated 12 h then 425 nm LED 15 min (36 J cm-2), read-out: IC50 Light) was 0.13 ± 0.02 µM. Moreover, the “increase in the mean fluorescence intensity of DCF” value with A549 cells [2] is reported as “ca. 17 fold”. Further, the “increase in caspase-3/7 activity” value is reported as “approximately 5.7 fold” in assay [3] (A549, 0.5 μM and light (36 J cm–2)); “negligible increase” in assay [3] (A549, compound alone (dark)). Moreover, in the assay with A549 cells [1] (light IC50 A549 vs LO2), the “fold higher phototoxicity against A549 cells than against LO2 cells” value is “over 36 fold”. In addition, the “percentage of apoptotic cells” value in the assay on A549 cells [4] was determined as 69.7%. In addition, in the assay on A549 and LO2 cells, the “selectivity of PDT in A549/LO2 co-culture” value was “high selectivity towards cancer over normal cells”.
For the molecule `c1ccc2c(c1)[nH]c1c(-c3ncc[nH]3)nccc12` [Complex L1, 1-(2-imidazolyl)-β-carboline, reference compound], the IC50 in the assay with A549cisR cells (setting [7]) is 42.6 ± 3.8 µM; in the assay with A549cisR cells (setting [8]), 19.7 µM; in the assay with LO2 cells (setting [9]), over 100 µM; in the assay with LO2 cells (setting [10]), 47.4 µM; with A549 cells [1] (setting [7]), over 100 µM; with A549 cells [1] (setting [8]), 17.6 µM. Moreover, the “PI (phototoxicity index)” value is 2.2 with A549cisR cells, over 2.1 in the assay on LO2 cells, over 5.7 in the assay with A549 cells [1] and 16.3 in the assay with MCF-7 cells.
As to `N.N.[Cl][Pt][Cl]` [Cisplatin, reference compound], the “PI (phototoxicity index)” value in the assay with A549cisR cells is 1.0; in the assay with LO2 cells, 1.0; with A549 cells [1] it was 1.0; in the assay on MCF-7 cells, 1.1. Further, the IC50 with A549cisR cells (setting [5]) is 85.5 ± 5.3 µM; with A549cisR cells (setting [6]), 86.1 µM; with LO2 cells (setting [5]) it was 31.2 ± 2.7 µM; in the assay on LO2 cells (setting [6]), 30.5 µM; with A549 cells [1] (setting [5]) it was 23.3 ± 2.6 µM; in the assay with A549 cells [1] (setting [6]), 22.6 µM. Further, the “effect of light irradiation on caspase-3/7 activation” value in assay [3] (A549, 425 nm light (36 J cm–2)) is on record as “no effect”.
